Measurements reported in publication PMC12441861, “Next-Generation Lipid Prodrugs Orally Deliver Tenofovir via Enhanced Chylomicron Incorporation” (ACS Pharmacology & Translational Science, 2025).
Where two headings read alike, the source gives them in different places.

Legend:
Cytotoxicity, MTT assay = settings: human
Method: To measure cytotoxicity, HeLa-derived TZM-bl cells , were treated with serial dilutions of each drug, and viability was assessed after 48 h. Two methods were used: an ATP luminescence assay, which measures cellular ATP levels as an indicator of metabolic activity (compounds 8a–d), and an MTT assay, which evaluates cell viability via mitochondrial enzymatic activity (compounds 15b, 21a, and 21b).
The TZM-bl cell line (BEI Resources, ARP-8129) was used to evaluate both cell viability and HIV pseudovirus infectivity reduction. Cytotoxicity in this cell line was measured via two methods. The first method, an ATP luminescence assay, was used for compounds 15a, 15b, 21a, and 21b as such: 6000 TZM-bl cells per well were seeded in a 96-well plate and incubated at 37 °C with 5% CO2 for 24 h. Compounds were prepared as serial dilutions (final concentrations of 1, 0.2, 0.04, 0.008, and 0.0016 μM) in complete DMEM with DEAE-Dextran at 40 μg/mL to mimic HIV infectivity conditions. Solutions were added to the cells and incubated for another 48 h. Viability was assessed using the Promega Cell Titer Glow (CTG) Assay (cat No. G9242) by adding a 50% PBS-CTG solution to each well and measuring luminescence, which correlates with ATP levels, on an Agilent BioTek Synergy HT reader. Cytotoxicity of compounds 8a–d was determined using a colorimetric assay based the conversion of MTT (3-(4,5-dimethylthiazol-2-yl)-2,5-diphenyltetrazolium bromide) to formazan as described previously. TZM-bl cells were plated into 96-well tissue culture plates 1 day prior to performing the MTT assay. A series of 10 3-fold dilutions of each compound was performed from a starting concentration of 10 mM and each dilution was tested for a reduction in cell viability according to the manufacturer’s instructions (CyQuant MTT Cell Viability Assay, ThermoFisher, V13154). Wells containing TZM-bl cells with media only were used as a control. Briefly, serial dilutions of each test compound were added to the plated TZM-bl cells. At 48 h, the media was removed and replaced with 100 mL of fresh culture medium. 10 mL of 12 mM MTT solution was added to each well and incubated at 37 °C for 4 h. 85 mL of supernatant was then removed from each well and replaced with 50 mL of DMSO. Following a 10 min incubation at 37 °C, the absorbance of each well was determined at 540 nm using a Biotek Synergy Neo2 multimode reader and Gen5 v3.02 software.

[1] = Mouse oral PK and tissue distribution, fed state; format: in vivo; settings: for Tmax / AUC(0-t) / Cmax: male, C57BL/6, mouse; for AUC(0-t): read-out: Plasma AUC0-18h; for improvement in lung AUC over TXL / improvement in lung AUC over non-BOG counterpart (21a vs 15a, 21b vs 15b) / increase in plasma AUC relative to TXL / increase in plasma AUC relative to non-BOG counterpart (21a vs 15a, 21b vs 15b) / increase in plasma Cmax relative to TXL / increase in plasma Cmax relative to non-BOG counterpart (21a vs 15a, 21b vs 15b): 10 mg/kg oral
Source text: Given the increased packaging of the CF3-modified lipids into CMs compared to their ω-unmodified congeners, we selected these compounds for PK studies in mice. We hypothesized that, following oral administration, our modified prodrugs would favor CM-mediated transport into the lymphatics over absorption into mesenteric veins feeding into the portal system. By circumventing direct transport to the liver, these prodrugs are expected to achieve elevated levels in the lung relative to the liver, as lymph empties into the jugular venous angle and mixes with blood en route to the pulmonary arteries (Figure ). For all mouse PK experiments, prodrugs were formulated in a 9:1 mixture of olive oil and ethanol, then administered to male C57BL/6 mice via oral gavage at a dose of 10 mg/kg. Organs (liver, lung, and plasma) were harvested at 1, 2, 4, 8, and 18 h postdose, per the protocol described by our groups previously. Concentrations of prodrug were quantified using LC-MS/MS after tissue homogenization, extraction, and sample preparation.
The compounds TXL, 15a, 15b, 21a, 21b, and a vehicle control were prepared at a concentration of 1 mg/mL in a 90:10 solution of olive oil (Sigma-Aldrich, cat. No. O1514) and 190-proof ethanol. The dosing for each mouse was calculated based on individual body weights to achieve a final dose of 10 mg/kg. For example, a 20 g mouse would receive 200 μL of the 1 mg/mL drug formulation, while a 25 g mouse would receive 250 μL.
In accordance with the American Chemical Society Guidelines to Publication of Chemical Research, we affirm the use of standard ethical practices when housing and handling research animals, as ensured by the Emory University’s Institutional Animal Care and Use Committee (IACUC) and the Division of Animal Resources (DAR) through a rigorous protocol review, amendment, and approval process. A total of 220 C57BL6/J male mice (aged 11–12 weeks, weight, 22–30 g) were used for these studies. Each mouse was weighed, recorded, and ear-clipped for identification. The dosing for each mouse was calculated based on individual body weights to achieve a final dose of 10 mg/kg. Animals were anesthetized using isoflurane gas before receiving a single dose of drug prepared as described above using a 22-gauge gavage needle attached to a calibrated syringe.
Time points for tissue collection were 1, 2, 4, 8, and 18 h for unfasted mice, and 1, 2, 4, 8, and 24 h for fasted mice. At each time point, the mice (n = 4 per compound per time point) were anesthetized using isoflurane and subjected to cardiac puncture for blood collection into EDTA-coated tubes. The collected blood samples were immediately placed on ice before the mice were humanely euthanized via cervical dislocation. Brain, liver, lungs, and kidneys were harvested, rinsed in PBS, and placed in prelabeled tubes. Tissues were flash-frozen in liquid nitrogen then transferred to dry ice for storage.
Blood samples were collected into EDTA-coated tubes and centrifuged at 400 RCF for 10 min at 4 °C to separate plasma from the cellular components. The plasma layer was carefully pipetted off and stored in separate prelabeled and preweighed tubes. All tissues were stored at −80 °C until time for processing.
Tissues were weighed (∼50 mg) into homogenization tubes and ACN containing a 10 μM ITSD was added to achieve a final solvent-to-tissue ratio of 4:1. Homogenization beads were added, and the tissues were processed (Biotage Lysera, part no. 19–060) using two 20 s pulses with a 10 s interval period. Homogenate was centrifuged at maximum speed for 1 h, supernatant collected and analyzed via LC-MS using the method described previously. For plasma samples, a 50 μL aliquot was added 200 μL of ACN containing ITSD. The mixture was vortexed thoroughly and then centrifuged to precipitate proteins, with the supernatant collected and analyzed via LC-MS. […]

Caco-2 cells = experiment: Control: release of membrane-associated prodrug into media after wash; format: in vitro ADME, human; settings: 10 μM, 15 min at 37 °C, media at 0, 5 and 15 min postwash
Method: After characterizing the impact of membrane dynamics on the packaging of ω-unfunctionalized prodrugs into CMs, we proceeded to screen the ω-CF3-functionalized BOG lipid prodrugs in our CM assay. All collections were done at the 20 h time point to allow full diffusion of prodrug out of the membrane. […] However, CM concentration strongly correlated with c Log D values (R ^2 = 0.89, Figure c), consistent with trends observed for ω-unfunctionalized prodrugs and highlighting the role of lipophilicity on CM incorporation. […] This is further supported by the 2.4-fold increase in CM concentration observed for 15a compared to TXL, where the only difference is the inclusion of the terminal CF3 group. […] Therefore, as an important control experiment, Caco-2 cells were incubated with 10 μM of TXL or compound 21a (n = 6 per group) in the presence of the lipid mixture for 15 min at 37 °C. After incubation, the cells were washed three times with PBS, and fresh drug-free growth media was added. Aliquots of the media were collected at 0, 5, and 15 min postwash. Samples were analyzed by LC-MS/MS for the presence of TXL and 21a.

[2] = in vivo, po, 10 mg/kg, single oral dose 10 mg/kg, fed mice, read-out: Liver Tmax
[3] = in vivo, po, 10 mg/kg, single oral dose 10 mg/kg, fed mice, read-out: Lung Tmax
[4] = in vivo, po, 10 mg/kg, single oral dose 10 mg/kg, fed mice, read-out: Plasma Tmax
[5] = in vivo, single oral dose 10 mg/kg, fed mice
[6] = in vivo, single oral dose 10 mg/kg, fed mice, read-out: Plasma Cmax
[7] = single oral dose 10 mg/kg, fed mice
[8] = liver, single oral dose 10 mg/kg, fed mice, read-out: Liver Tmax
[9] = plasma, single oral dose 10 mg/kg, fed mice
[10] = plasma, single oral dose 10 mg/kg, fed mice, read-out: Plasma Tmax

Compound | CC50 at 48 h (Cytotoxicity, MTT assay) [µM] | Tmax [1, 2] [h] | Tmax [1, 3] [h] | Tmax [1, 4] [h] | AUC(0-t) [1, 5] [ng·h/mL] | Cmax [1, 6] [ng/mL] | Liver AUC0-18h [1, 7] | Liver Cmax [1, 7] | Lung Cmax [1, 7] | prodrug concentration in media postwash (Caco-2 cells) | improvement in lung AUC over TXL ([1]; fed mice) [fold] | improvement in lung AUC over non-BOG counterpart (21a vs 15a, 21b vs 15b) ([1]; fed mice) [fold] | increase in plasma AUC relative to TXL ([1]; fed mice) [fold] | increase in plasma AUC relative to non-BOG counterpart (21a vs 15a, 21b vs 15b) ([1]; fed mice) [fold] | increase in plasma Cmax relative to TXL ([1]; fed mice) [fold] | increase in plasma Cmax relative to non-BOG counterpart (21a vs 15a, 21b vs 15b) ([1]; fed mice) [fold] | Tmax [1, 8] [h] | Cmax [1, 9] [ng/mL] | AUC(0-t) [1, 9] [ng·h/mL] | Tmax [1, 10] [h] | also measured
C[C@H](Cn1cnc2c(N)ncnc21)OCP(=O)(O)OCCCOCCCCCCCCCCCCCCCC(F)(F)F [15a, Ammonium[(1R)-2-(6-aminopurin-9-yl)-1-methyl-ethoxy]methyl-[3-(16,16,16-trifluorohexadecoxy)propoxy]phosphinate] | > 10 | 2 | 8 | 2 | 706 | 127 | 190,000 h*ng/g | 27,000 ng/g | 729 ng/g | – | – | – | – | – | – | – | – | – | – | – | –
C[C@H](Cn1cnc2c(N)ncnc21)OCP(=O)(O)OC[C@H](COCCCCCCCCCCCCCCCC(F)(F)F)OCc1ccccc1 [21a, Ammonium[(1R)-2-(6-Aminopurin-9-yl)-1-methyl-ethoxy]methyl-[(2S)-2-benzyloxy-3-(16,16,16-trifluorohexadecoxy)propoxy]phosphinate] | – | – | – | – | – | – | 564,000 h*ng/g | 37,600 ng/g | 7,330 ng/g | below the limit of detection | 10 | 9 | 16 | 7 | 32 | 7 | 4 | 915 | 4710 | 1 | Tmax ([1]; lung, po, 10 mg/kg, tissue not stated, read-out: Tmax (fed)): 8 h; Lung AUC0-18h [1, 7]: 72,300 h*ng/g
C[C@H](Cn1cnc2c(N)ncnc21)OCP(=O)(O)OC[C@H](COCCCCCCCCCCCCCCCCCC(F)(F)F)OCc1ccccc1 [21b, Ammonium[(1R)-2-(6-aminopurin-9-yl)-1-methyl-ethoxy]methyl-[(2S)-2-benzyloxy-3-(18,18,18-trifluorooctadecoxy)propoxy]phosphinate] | – | – | – | – | – | – | 218,000 h*ng/g | 22,000 ng/g | 3,000 ng/g | – | 4 | 4 | 15 | 5 | 28 | 8 | 4 | 802 | 4530 | 2 | Tmax ([1]; lung, single oral dose 10 mg/kg, fed mice, read-out: Lung Tmax): 8 h; Lung AUC0-18h [1, 7]: 31,100 h*ng/g
CCCCCCCCCCCCCCCCOCCCOP(=O)(O)CO[C@H](C)Cn1cnc2c(N)ncnc21 [TXL, hexadecyloxypropyl (HDP)-TFV, reference compound] | > 10 | 2 | 8 | 8 | 298 | 29.1 | 25,600 h*ng/g | 2,660 ng/g | 583 ng/g | below the limit of detection | – | – | – | – | – | – | – | – | – | – | Tmax ([1]; in vivo, po, 10 mg/kg, tissue not stated, read-out: Tmax (fed)): 8 h
